From the supplement of paper PMC5908809

What was measured:
[1] = tested on: normal NK cells expanded with K562-aAPC; assay: percent inhibition of viability; higher = more inhibition; conditions: 72 h, IL-2 2.5 ng/mL
Method: (§1)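 Drug sensitivity and resistance testing on K562-aAPC-expanded normal NK cells: 5 concentrations (10-fold steps over a 10,000-fold range), 72 h at 37 °C, viability by CellTiter-Glo normalised to DMSO and benzethonium chloride controls; DSS from the fitted curve.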

[2] = tested on: normal NK cells expanded with K562-aAPC; assay: drug sensitivity score (DSS) (DSS units); higher = more sensitive; extreme values may be limits of the assay; conditions: 72 h; IL-2 2.5 ng/mL
Method: as §1

[3] = tested on: normal primary NK cells, pool 1 (3 donors) (IL-2 2.5 ng/mL); assay: percent inhibition of viability; higher = more inhibition; conditions: 72 h
[4] = tested on: YT (IL-2 2.5 ng/mL); assay: as above; conditions: 72 h
[5] = tested on: KAI3 (IL-2 2.5 ng/mL); assay: as above; conditions: 72 h
[6] = tested on: IMC-1 (IL-2 20 ng/mL); assay: as above; conditions: 72 h
[7] = tested on: normal primary NK cells, pool 3 (3 donors) (IL-2 2.5 ng/mL); assay: as above; conditions: 72 h
[8] = tested on: KHYG-1 (IL-2 2.5 ng/mL); assay: as above; conditions: 72 h
[9] = tested on: NKL (IL-2 2.5 ng/mL); assay: as above; conditions: 72 h
[10] = tested on: normal primary NK cells, pool 2 (3 donors) (IL-2 2.5 ng/mL); assay: as above; conditions: 72 h
[11] = tested on: NK-YS (IL-2 2.5 ng/mL); assay: as above; conditions: 72 h
[12] = tested on: SNK-6 (IL-2 2.5 ng/mL); assay: as above; conditions: 72 h
[13] = tested on: normal primary NK cells, pool 1 (3 donors), resting (IL-2 0 ng/mL); assay: as above; conditions: 72 h
[14] = tested on: NK-92 (IL-2 2.5 ng/mL); assay: as above; conditions: 72 h
[15] = tested on: DERL-7 (IL-2 2.5 ng/mL); assay: as above; conditions: 72 h
[16] = tested on: normal primary NK cells, pool 1 (3 donors) (IL-2 2.5 ng/mL); assay: drug sensitivity score (DSS) (DSS units); higher = more sensitive; extreme values may be limits of the assay; conditions: 72 h
[17] = tested on: YT (IL-2 2.5 ng/mL); assay: as above; conditions: 72 h
[18] = tested on: KAI3 (IL-2 2.5 ng/mL); assay: as above; conditions: 72 h
[19] = tested on: IMC-1 (IL-2 20 ng/mL); assay: as above; conditions: 72 h
[20] = tested on: normal primary NK cells, pool 3 (3 donors) (IL-2 2.5 ng/mL); assay: as above; conditions: 72 h
[21] = tested on: KHYG-1 (IL-2 2.5 ng/mL); assay: as above; conditions: 72 h
[22] = tested on: NKL (IL-2 2.5 ng/mL); assay: as above; conditions: 72 h
[23] = tested on: normal primary NK cells, pool 2 (3 donors) (IL-2 2.5 ng/mL); assay: as above; conditions: 72 h
[24] = tested on: NK-YS (IL-2 2.5 ng/mL); assay: as above; conditions: 72 h
[25] = tested on: SNK-6 (IL-2 2.5 ng/mL); assay: as above; conditions: 72 h
[26] = tested on: normal primary NK cells, pool 1 (3 donors), resting (IL-2 0 ng/mL); assay: as above; conditions: 72 h
[27] = tested on: NK-92 (IL-2 2.5 ng/mL); assay: as above; conditions: 72 h
[28] = tested on: DERL-7 (IL-2 2.5 ng/mL); assay: as above; conditions: 72 h

NC1(c2ccc(-c3nc4ccn5c(=O)[nH]nc5c4cc3-c3ccccc3)cc2)CCC1 [MK-2206] (max concentration tested 1000 nM)
percent inhibition of viability [%]
Conditions | 0.1 nM | 1 nM | 10 nM | 100 nM | 1000 nM
[1] | -2.31 | 2.49 | 7.6 | 28.5 | 45.6
[3] | -0.91 | -7.29 | 2.37 | 6.7 | 21.3
[4] | -0.31 | -0.89 | 5.71 | 2.26 | 10.1
[5] | 0.47 | -1.02 | 11.1 | 11.8 | 17.4
[6] | -4.35 | -1.09 | -0.11 | -1.78 | 9.7
[7] | -11.3 | -6.35 | -0.77 | 8.45 | 19.7
[8] | -0.27 | 8.2 | 6.87 | 6.05 | 14.9
[9] | -12.3 | -6.86 | -5.82 | 11.8 | 4.37
[10] | -7.56 | 2.73 | 8.98 | 12.9 | 34.8
[11] | 2 | 1.38 | 5.87 | 2.52 | 14.5
[12] | -2.51 | -8.62 | 3.89 | 0.46 | 24.3
[13] | 11.9 | -0.15 | 13.2 | 11.8 | 43
[14] | -0.6 | -11 | 14.7 | 21.1 | 42.8
[15] | -1.61 | 2.78 | 9.98 | 34.8 | 76

Conditions | drug sensitivity score
[2] | 5.95
[16] | 1.31
[17] | 0
[18] | 1.8
[19] | 0
[20] | 1.47
[21] | 0.23
[22] | 0
[23] | 2.88
[24] | 0.39
[25] | 0.95
[26] | 3.29
[27] | 4.95
[28] | 8.28

O=c1sn(-c2cccc3ccccc23)c(=O)n1Cc1ccccc1 [Tideglusib] (max concentration tested 3000 nM)
percent inhibition of viability [%]
Conditions | 0.3 nM | 3 nM | 30 nM | 300 nM | 3000 nM
[1] | -6.95 | -7.17 | -3.75 | -3.95 | 10.8
[3] | -1.89 | -5.16 | 15.6 | 9.54 | 6.41
[4] | 0.91 | -5.07 | -4.89 | -0.66 | 12.1
[5] | 4.52 | 0.51 | -8.06 | 2.48 | 28.9
[6] | -9.15 | -4.57 | -3.56 | -1.74 | 14.2
[7] | -6.37 | -9.25 | 6.54 | 6.09 | 5.7
[8] | 0.24 | -8.35 | -8.09 | -2.62 | 8.61
[9] | -0.96 | -13.4 | -11.3 | 4.69 | 13.7
[10] | -9.87 | -9.74 | -4.05 | -1.59 | 6.8
[11] | -1.28 | -6.26 | -8.67 | -1.58 | 10.1
[12] | -1.78 | 4.09 | -8.27 | 7.39 | 0.93
[13] | 2.26 | 8.84 | 16.1 | 20.2 | 27.7
[14] | -5 | -12.7 | -13.7 | -11.8 | -1.4
[15] | 0.33 | 8.56 | 5.78 | 9.73 | -4.19

Conditions | drug sensitivity score
[2] | 0
[16] | 0.12
[17] | 0.04
[18] | 1.59
[19] | 0.12
[20] | 0
[21] | 0
[22] | 0.46
[23] | 0
[24] | 0
[25] | 0
[26] | 4.87
[27] | 0
[28] | 0
